Laboratory results taken from publication PMC8631515 (Frontiers in Oncology, 2021).
Non-standard residues stand in square brackets, D forms with d. No end group written: not given here.

Key:
[1] = tested on: heart, liver and kidney; assay: H&E histology of major organs of tumor-bearing mice; format: in vivo, Balb/c mice; conditions: CT26-bearing mice, i.p. twice a week for two weeks, n = 7
[2] = Cleavage assay of PPA1-DOX in acidic sodium phosphate buffer; format: physicochemical; conditions: sodium phosphate buffer pH 5.0, 37°C, sampled 0.5-24 h, under nitrogen, 1 mg/mol (so in the source) in 2 mL; HPLC (HILIC), UV 254 nm
Description: (§1) To verify the acid sensitivity of hydrazone bond linking the PPA1 to DOX, a series of PPA1-DOX and DOX solutions with different concentrations were configured in the sodium phosphate buffer (pH= 9.0), respectively. A 5 μL aliquot of each sample was injected onto an HPLC system with ultraviolet detector wavelength to determine 254 nm absorbance values, using hydrophilic interaction chromatography (HILIC) column separation (Waters, XBridge BEH HILIC XP Column, 2.1 mm, 50 mm, 2.5 µm). Through simulating the linearity fitting from disposed concentrations and detected absorbance values, standard curves of PPA1-DOX and DOX were obtained, respectively.
(§2) Preparing two partials of PPA1-DOX (1 mg/mol) were dissolved into the 2 mL sodium phosphate buffer (pH = 5.0) and 2 mL mouse serum (pH = 7.4), respectively, and the vials were capped and kept 37°C under nitrogen with continuously slight oscillaation. Samples (20 μL) were spiked and analyzed by HPLC under the 254 nm absorbance value after incubating 0.5 h, 1 h, 2 h, 4 h, 12 h and 24 h. For evaluation of hydrazone bond cleavage data was considered the disappearance of the major peak related to the standard curves of PPA1-DOX and DOX.

[3] = Cleavage assay of PPA1-DOX in mouse serum; format: in vitro ADME; conditions: mouse serum pH 7.4, 37°C, 24 h, under nitrogen, 1 mg/mol (so in the source) in 2 mL; HPLC (HILIC), UV 254 nm
Description: as §1, §2

[4] = Body weight of CT26 tumor-bearing mice; conditions: i.p. twice a week for two weeks, DOX 5 mg/kg, 5-Fu 10 mg/kg, PPA1 15 mg/kg, PPA1-DOX 20 mg/kg, after day 7, n = 7
From the text: Six-week-old female Balb/c mice were inoculated subcutaneously with 5 × 10^6 CT26 cells in the left armpit. The mice were randomly divided into groups with 7 mice in each group after the tumor reached about 100 mm^3. The mice were housed in animal house of Shenzhen University. For the survival experiment, the mice were killed when the tumor reached about 1500 mm^3. The tumor size and body weight were monitored every day after the injection of the drugs. At the end of the experiment, the tumors and major organs (heart, liver, spleen, lung, and kidney) were collected for immunohistochemistry and/or histological tests. For the PPA1-DOX distribution experiment, the tumors and major organs were subsequently analyzed with an in vivo imaging system (IVIS Spectrum, PerkinElmer).
DOX at 5 mg/kg, 5-Fu at 10 mg/kg, PPA1 and RAN at 15mg/kg, PPA1-DOX and RAN-DOX at 20 mg/kg were injected intraperitoneally to mice twice a week for two weeks. […] For the PPA1-DOX distribution experiment, RhB-PPA1-DOX and RhB-RAN-DOX at 20mg/kg were injected into the tail vein of the mice.

[5] = tested on: CT26 tumor; assay: Antitumor activity in CT26-bearing mice; format: in vivo, Balb/c mice; conditions: i.p. twice a week for two weeks
[6] = tested on: intratumoral CD4+ and CD8+ T cells; assay: CD4/CD8 immunohistochemistry of tumor tissues; format: in vivo, Balb/c mice; conditions: CT26-bearing mice, compared with RNA-DOX-, DOX- or 5-FU-treated mice
Description: The tumor tissues were fixed in 4% paraformaldehyde, gradually dehydrated, embedded in paraffin, cut into 4um sections, and subjected for hematoxylin/eosin staining. For immuno-histochemical staining of CD4/CD8 positive cells, tissue sections processed through deparaffinage, rehydration and antigen plerosised, and endogenous peroxidase activity blockade, were incubated with mouse anti-human CD4(1:300, Proteintech, USA), mouse anti-human CD8(1:200, Proteintech, USA) at 4°C overnight, respectively. The secrions were then washed and incubated with a HRP-labeled secondary antibody at RT for 40 min. After color development through incubation with diaminobenzidine, the sections were counterstained with hematoxylin. The stained sections were observed and imaged under a light microscope.

[7] = biological target: Programmed death-ligand 1 (PD-L1), Tag1-PD-L1 (UniProt Q9NZQ7 19-238); assay: AlphaScreen or HTRF; Cisbio HTRF PD1/PD-L1 binding assay kit; Tag1-PD-L1 and Tag2-PD1 detected with anti-Tag1-Europium (donor) and anti-Tag2-XL665 (acceptor); peptide or conjugate varied as blocker; IC50 from a sigmoidal (Hill) fit; n = 3; conditions: both partners purified
Programmed death-ligand 1 (PD-L1), Tag1-PD-L1, sequence (Q9NZQ7 19-238): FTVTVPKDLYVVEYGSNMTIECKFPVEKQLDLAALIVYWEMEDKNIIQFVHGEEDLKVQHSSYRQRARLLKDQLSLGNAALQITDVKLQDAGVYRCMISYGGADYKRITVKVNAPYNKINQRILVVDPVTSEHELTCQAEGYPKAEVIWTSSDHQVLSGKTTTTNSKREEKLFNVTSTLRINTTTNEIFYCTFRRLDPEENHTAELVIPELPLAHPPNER

Molecule	toxicity to major organs (H&E stained sections) [1]	IC50 [7] [nM]	other results
O=c1[nH]cc(F)c(=O)[nH]1 [Compound 5-Fu]	severe damages	–	–
C[C@H](O)[C@@H](NC(=O)[C@H]1CCCN1C(=O)[C@@H](CCCCN)NC(=O)[C@@H](CO)NC(=O)[C@@H](Cc1ccc(O)cc1)NC(=O)[C@H](N)CC(N)=O)C(=O)N[C@H](CC(=O)O)C(=O)N[C@H](CCCNC(=N)N)C(=O)N[C@H](CCC(N)=O)C(=O)N[C@H](Cc1ccc(O)cc1)C(=O)N[C@H](Cc1c[nH]cn1)C(=O)N[C@H](Cc1ccccc1)C(=O)N[C@H](CCCCN)C(=O)O [PPA1]	rather low toxicity	–	–
COc1cccc2c1C(=O)c1c(O)c3c(c(O)c1C2=O)C[C@@](O)(C(=O)CO)C[C@@H]3O[C@H]1C[C@H](N)[C@H](O)[C@H](C)O1 [DOX, doxorubicin]	severe damages	–	–
COc1cccc2c1C(=O)c1c(O)c3c(c(O)c1C2=O)C[C@@](O)(C(CO)=NNC(=O)CCCc1cn(CC(=O)NCCCC[C@@H](NC(=O)[C@@H](Cc2ccccc2)NC(=O)[C@@H](Cc2c[nH]cn2)NC(=O)[C@@H](Cc2ccc(O)cc2)NC(=O)[C@@H](CCC(N)=O)NC(=O)[C@@H](CCCNC(=N)N)NC(=O)[C@@H](CC(=O)O)NC(=O)[C@H](NC(=O)[C@H]2CCCN2C(=O)[C@@H](CCCCN)NC(=O)[C@@H](CO)NC(=O)[C@@H](Cc2ccc(O)cc2)NC(=O)[C@H](N)CC(N)=O)[C@H](C)O)C(=O)O)nn1)C[C@@H]3O[C@H]1C[C@H](N)[C@H](O)[C@H](C)O1 [PPA1-DOX]	rather low toxicity	–	hydrazone cleavage in acidic environment [2]: rapidly cleaved into PPA1 and DOX; stability of conjugate in mouse serum (HPLC peaks) [3]: little change on peaks; body weight change [4]: no remarkable body weight loss; survival time ([5]; PPA1-DOX 20 mg/kg, superior to free PPA1 and RAN-DOX, mice killed at tumor about 1500 mm^3, n = 7): longer survival time; tumor growth ([5]; PPA1-DOX and RAN-DOX 20 mg/kg, n = 7): effective suppression of tumor growth; infiltration of CD4+ and CD8+ T cells in tumors [6]: obviously increased infiltration
NYSKPTDRQYHFK (all residues in D-form, D-peptide, printed in lower case (nyskptdrqyhfk); also called free PPA1; PD-L1 targeting polypeptide; source: synthetic peptide, bought: Chinapeptides Co., Ltd) [PPA1, proteolysis resistant PD-L1-targeted peptide]	–	174	–
[dN][dY][dS][dK][dP][dT][dD][dR][dQ][dY][dH][dF]K (not fully specified (residue 13); also: triazole from click, hydrazone to doxorubicin, D-peptide, printed as nyskptdrqyhf-Lys(N3); the last lysine carries the azide used for the conjugation to DOX; also called compound 5; PPA-DOX; source: synthetic: azide end-functionalized PPA1 peptide joined to hydrazine-DOX by click chemistry, purified by HPLC) [PPA1-DOX, conjugate of PPA1 with doxorubicin through an acid-sensitive hydrazone linker]	–	281	–
